Experimental data published in publication PMC8713283 (Journal of Medicinal Chemistry, 2021).

Tests used:
VHL + Brd2BD2 = target: T1, VHL + Brd2BD2 (Homo sapiens, UniProt P25440+P40337); experiment: FP competition, ternary binding to VHL with Brd2BD2; settings: Log10(α) = pKd ternary - pKd binary
T1 construct: Brd2-BD2 (344–455); His6 (N, cleaved yes); made in house; host or cells: E. coli

VHL + Brd3BD2 = target: T2, VHL + Brd3BD2 (Homo sapiens, UniProt P40337+Q15059); experiment: FP competition, ternary binding to VHL with Brd3BD2
T2 construct: Brd3-BD2 (306–416); His6 (N, cleaved yes); made in house; host or cells: E. coli

VHL + Brd4BD2 = target: T3, VHL + Brd4BD2 (Homo sapiens, UniProt O60885+P40337); format: binding; settings: Log10(α) = pKd ternary - pKd binary
T3 construct: Brd4-BD2 (333–460); His6 (N, cleaved yes); made in house; host or cells: E. coli

VHL + Brd3BD1 = VHL + Brd3BD1 (Homo sapiens, UniProt P40337+Q15059)
VHL + Brd4BD1 = VHL + Brd4BD1 (Homo sapiens, UniProt O60885+P40337)
P-gp (human MDR1) = experiment: in vitro; settings: dog, MDCK-MDR1
[1] = Log10(α) = pKd ternary - pKd binary

Cc1ncsc1-c1ccc(CNC(=O)[C@@H]2C[C@@H](O)CN2C(=O)[C@@H](NC(=O)COCCOCCOCCNC(=O)C[C@@H]2N=C(c3ccc(Cl)cc3)c3c(sc(C)c3C)-n3c(C)nnc32)C(C)(C)C)cc1 [Compound 21, MZ1]
ΔpKd (VHL + Brd2BD2): 1.46 | ΔpKd (VHL + Brd3BD2; [1]): 0.73 | Cooperativity α (VHL + Brd3BD2; α = Kd binary/Kd ternary): 5.3 | ΔpKd (VHL + Brd4BD2): 1.73 | PAMPA Pe: 0.01 ×10^–6 cm/s | ΔpKd (VHL + Brd3BD1; [1]): 0.45 | Cooperativity α (VHL + Brd3BD1; α = Kd binary/Kd ternary): 2.8 | ΔpKd (VHL + Brd4BD1; [1]): 0.62 | Cooperativity α (VHL + Brd4BD1; α = Kd binary/Kd ternary): 4.2 | Papp B→A at 5 µM (P-gp (human MDR1)): 1.5 ×10⁻⁶ cm/s
